# Assays:
# [1] = impurity from ethoxyquin preparation remaining in animal feed; cited from earlier work
# [2] = Particle size after dissolution in water by photon correlation spectroscopy (Malvern Zetasizer Nano ZSP); format: physicochemical; conditions: dry powder with propyl gallate added to the dispersion (Examples 1, 3b, 3c, 3d), PCS
# Procedure: The particle size is determined by means of a Malvern Zetasizer Nano ZSP.
# 30 g of citranaxanthin were suspended in 240 g of isopropanol together with 1.1 g of ascorbyl palmitate and, with setting of the pressure-limiting valve to 30 bar, mixed continuously with 390 g of isopropanol in a mixing chamber A. At a metering rate of 6 L/h on the suspension side and of 9 L/h on the solvent side, a mixing temperature of 170° C. was established in the mixing chamber A. After a residence time of 0.3 second, the molecularly disperse solution was mixed in mixing chamber B with a solution of 32 g of gelatin, 71.4 g of sucrose and 50 g of glucose syrup in 4000 g of water at a throughput rate of 100 L/h. After the solvent had been removed under reduced pressure in a distillation apparatus, an active ingredient dispersion was obtained, to which 8 g of sunflower oil and 8 g of propyl gallate were added. The propyl gallate was predissolved here in 200 mL of water and adjusted to pH 7 with NaOH. Subsequently, the dispersion was converted to a stable, water-soluble dry powder by spray drying. After dissolution in water, by photon correlation spectroscopy (PCS), a particle size of 386 nm (standard deviation 142.5, polydispersity index PDI 0.185, D(95): 660 nm) was measured (Malvern Zetasizer Nano ZSP).
# [3] = as above; format: physicochemical; conditions: dry powder of Example 3e, PCS
# [4] = Stress test: stability in premix mixture, stored at 40° C. and 70% humidity for 4 weeks, retention of vitamin content; format: physicochemical; conditions: for Retention Active ingredient content after 4-week premix test: Table 3c; for Retention Canthaxanthin after 4-week test: Table 5c
# Procedure: The stress test for the vitamins is configured such that specimens of 100 mg in each case of the formulation produced and 4 g of premix mixture are weighed into glass vessels. The premix mixture consists of 50% by weight of fine lime (particle size <1000 μm), 20% by weight of wheat bran (particle size <1000 μm), 20% by weight of 50% silica-supported choline chloride (particle size <1000 μm) and 10% by weight of trace element mixture (particle size 100-500 μm). The trace element mixture is composed of 46.78% by weight of FeSO4x7H2O (100-500 μm), 37.43% by weight of CuSO4x5H2O (100-500 μm), 11.79% by weight of ZnO (<500 μm), 3.61% by weight of MnO and 0.39% by weight of CoCO3. After addition of all ingredients, the specimens are mixed cautiously, with performance of the mixing mechanically or else by hand, and these specimens (A) are stored in a climate-controlled chamber at 40° C. and 70% humidity for 4 weeks. […]
# For this purpose, specimens each of 100 mg of the formulation produced and 4 g of premix mixture are weighed out in glass vessels (50 mL glass vials). The premix mixture consists of 50% by weight of fine lime (particle size <1000 μm), 20% by weight of wheat bran (particle size <1000 μm), 20% by weight of 50% silica-supported choline chloride (particle size <1000 μm) and 10% by weight of trace element mixture (particle size 100-500 μm), said trace element mixture consisting of 46.78% by weight of FeSO4x7H2O (100-500 μm), 37.43% by weight of CuSO4x5H2O (100-500 μm), 11.79% by weight of ZnO (<500 μm), 3.61% by weight of MnO and 0.39% by weight of CoCO3. After addition of all ingredients, the specimens are mixed cautiously, where the mixing can be performed mechanically or else by hand, and these specimens (A) are stored in a climate-controlled chamber at 40° C. and 70% humidity for 4 weeks. An identical test is conducted with a comparative sample (B) which is of identical composition but which comprises, rather than propyl gallate, the same amount of ethoxyquin. […] The ratio of the contents after (A2), (B2) and before the storage (A1) and (B1) are used here to calculate the retention (A2/A1) or (B2/B1) of the samples. For the formulations of the invention, a quotient (A2/A1):(B2/B1) of at least 0.75 is determined here. Preferably, for the formulations of the invention, a quotient of at least 1 is obtained.
# The stability of the particles thus produced was tested in a stress test. For this purpose, specimens each of 100 mg of the particles produced and 4 g of premix mixture were weighed into 50 mL glass bottles. The premix mixture consisted of 50% by weight of fine lime (particle size <1000 μm), 20% by weight of wheat bran (particle size <1000 μm), 20% by weight of 50% silica-supported choline chloride (particle size <1000 μm) and 10% by weight of trace element mixture (particle size 100-500 μm), and the trace element mixture of 46.78% by weight of FeSO4x7H2O (100-500 μm), 37.43% by weight of CuSO4x5H2O (100-500 μm), 11.79% by weight of ZnO (<500 μm), 3.61% by weight of MnO and 0.39% by weight of CoCO3. After addition of all ingredients, the specimens were carefully mixed by hand. These specimens were stored in a climate-controlled chamber at 40° C. and 70% air humidity for 4 weeks. […]
smiles,measurement,setting,value
CCOc1ccc(N)cc1 [p-phenetidine],mutagenicity,[1],possibly a mutagen
CCOC(=O)/C(C)=C/C=C/C(C)=C/C=C/C=C(C)/C=C/C=C(C)/C=C/C1=C(C)CCCC1(C)C [C30 ester],particle size,[2],280 nm
same,polydispersity index PDI,[2],0.181
same,D(95),[3],683 nm
same,particle size,[3],373 nm
same,polydispersity index PDI,[3],0.203
same,Retention Active ingredient content after 4-week premix test,"[4]; propyl gallate 0% by wt., dispersion",6.7%
same,Retention Active ingredient content after 4-week premix test,"[4]; propyl gallate 2% by wt., dispersion",13.83%
same,Retention Active ingredient content after 4-week premix test,"[4]; propyl gallate 4% by wt., dispersion",42.7%
same,Retention Active ingredient content after 4-week premix test,"[4]; propyl gallate 6% by wt., dispersion",57.7%
same,Retention Active ingredient content after 4-week premix test,"[4]; propyl gallate 8% by wt., dispersion",64.1%
same,Retention Active ingredient content after 4-week premix test,"[4]; propyl gallate 10% by wt., dispersion",58.5%
same,Retention Active ingredient content after 4-week premix test,"[4]; propyl gallate 12% by wt., dispersion",54.3%
same,Retention Active ingredient content after 4-week test,"[4]; Table 3e, ethoxyquin 4% by wt., dispersion",28.6%
same,Retention Active ingredient content after 4-week test,"[4]; Table 3e, propyl gallate 4% by wt., dispersion",33.4%
same,Retention Active ingredient content after 4-week test,"[4]; Table 3e, propyl gallate 4% by wt., dispersion (pH adjustment before spraying from pH 8.5 to pH 6.8 with H2SO4)",39.8%
same,Retention Active ingredient content after 4-week test,"[4]; Table 3e, propyl gallate 6% by wt., dispersion",44.4%
same,Retention Active ingredient content after 4-week test,"[4]; Table 3e, propyl gallate 8% by wt., dispersion",43.4%
same,Retention Active ingredient content after 4-week test,"[4]; Table 4b, D,L-α tocopherol 4% by wt. (in active ingredient phase) + propyl gallate 4% by wt. (in protective colloid phase)",29.2%
same,Retention Active ingredient content after 4-week test,"[4]; Table 4b, mixed tocopherol 4% by wt. (in active ingredient phase) + propyl gallate 4% by wt. (in protective colloid phase)",57.5%
same,Retention Canthaxanthin after 4-week test,"[4]; propyl gallate 0% by wt., mixed tocopherol 4% by wt.",11%
same,Retention Canthaxanthin after 4-week test,"[4]; propyl gallate 4% by wt., mixed tocopherol 0% by wt.",42.7%
same,Retention Canthaxanthin after 4-week test,"[4]; propyl gallate 4% by wt., mixed tocopherol 4% by wt.",61.7%

# Reference: patent US10835456B2, “Propyl gallate-containing vitamin preparations” (BASF SE, priority 2016, dated 2020)
